Assay results as given in ChEMBL document CHEMBL3124809, “Back pocket flexibility provides group II p21-activated kinase (PAK) selectivity for type I 1/2 kinase inhibitors” (J Med Chem, 2014).

Experiments:
[1] = target: Serine/threonine-protein kinase PAK 1 (Homo sapiens, UniProt Q13153); test: Binding affinity to N-terminal GST-His-tagged recombinant human PAK1 kinase domain expressed in Escherichia coli BL21 using KKRNRRLSVA as sustrate preincubated for 10 mins followed by ATP addition measured after 60 mins by FRET-based Z'Lyte assay
[2] = target: T1, Serine/threonine-protein kinase PAK 4 (Homo sapiens, UniProt O96013); test: Binding affinity to N-terminal GST-tagged recombinant human PAK4 kinase domain expressed in Escherichia coli using KKRNRRLSVA as substrate preincubated for 10 mins followed by ATP addition measured after 60 mins by FRET-based Z'Lyte assay
Target sequence in this assay (O96013 whole entry, the tested form may be a part): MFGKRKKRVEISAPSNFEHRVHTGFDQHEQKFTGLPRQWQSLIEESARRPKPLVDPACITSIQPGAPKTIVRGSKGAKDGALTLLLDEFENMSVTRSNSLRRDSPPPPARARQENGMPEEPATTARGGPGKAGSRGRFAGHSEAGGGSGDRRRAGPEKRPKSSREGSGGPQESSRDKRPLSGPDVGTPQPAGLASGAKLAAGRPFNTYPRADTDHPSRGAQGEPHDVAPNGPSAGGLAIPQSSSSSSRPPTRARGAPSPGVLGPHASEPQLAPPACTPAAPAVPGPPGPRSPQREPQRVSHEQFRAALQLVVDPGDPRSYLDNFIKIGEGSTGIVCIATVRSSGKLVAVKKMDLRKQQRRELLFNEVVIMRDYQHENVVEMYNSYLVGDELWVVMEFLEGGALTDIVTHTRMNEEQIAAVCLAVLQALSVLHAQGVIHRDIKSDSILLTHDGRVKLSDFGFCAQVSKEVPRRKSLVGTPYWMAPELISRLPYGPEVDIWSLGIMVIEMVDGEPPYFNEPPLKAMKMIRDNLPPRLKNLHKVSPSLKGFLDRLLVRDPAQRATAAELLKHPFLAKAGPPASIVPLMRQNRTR

[3] = target: Mitogen-activated protein kinase kinase kinase 14 (Homo sapiens) (UniProt Q99558); test: Inhibition of NIK (unknown origin) at 1 uM
[4] = target: T1, Serine/threonine-protein kinase PAK 4; test: Inhibition of PAK4 (unknown origin) at 1 uM
Target sequence in this assay (O96013 whole entry, looked up, the tested form may be a part): as the sequence (O96013 whole entry, the tested form may be a part) above

[5] = target: Misshapen-like kinase 1 (Homo sapiens) (UniProt Q8N4C8); test: Inhibition of MINK1 (unknown origin) at 1 uM
[6] = target: Mitogen-activated protein kinase kinase kinase kinase 4 (Homo sapiens) (UniProt O95819); test: Inhibition of MAP4K4 (unknown origin) at 1 uM
[7] = target: T2, Tyrosine-protein kinase JAK3 (Homo sapiens) (UniProt P52333); test: Inhibition of JAK3 (unknown origin) at 1 uM
T2 sequence (whole entry): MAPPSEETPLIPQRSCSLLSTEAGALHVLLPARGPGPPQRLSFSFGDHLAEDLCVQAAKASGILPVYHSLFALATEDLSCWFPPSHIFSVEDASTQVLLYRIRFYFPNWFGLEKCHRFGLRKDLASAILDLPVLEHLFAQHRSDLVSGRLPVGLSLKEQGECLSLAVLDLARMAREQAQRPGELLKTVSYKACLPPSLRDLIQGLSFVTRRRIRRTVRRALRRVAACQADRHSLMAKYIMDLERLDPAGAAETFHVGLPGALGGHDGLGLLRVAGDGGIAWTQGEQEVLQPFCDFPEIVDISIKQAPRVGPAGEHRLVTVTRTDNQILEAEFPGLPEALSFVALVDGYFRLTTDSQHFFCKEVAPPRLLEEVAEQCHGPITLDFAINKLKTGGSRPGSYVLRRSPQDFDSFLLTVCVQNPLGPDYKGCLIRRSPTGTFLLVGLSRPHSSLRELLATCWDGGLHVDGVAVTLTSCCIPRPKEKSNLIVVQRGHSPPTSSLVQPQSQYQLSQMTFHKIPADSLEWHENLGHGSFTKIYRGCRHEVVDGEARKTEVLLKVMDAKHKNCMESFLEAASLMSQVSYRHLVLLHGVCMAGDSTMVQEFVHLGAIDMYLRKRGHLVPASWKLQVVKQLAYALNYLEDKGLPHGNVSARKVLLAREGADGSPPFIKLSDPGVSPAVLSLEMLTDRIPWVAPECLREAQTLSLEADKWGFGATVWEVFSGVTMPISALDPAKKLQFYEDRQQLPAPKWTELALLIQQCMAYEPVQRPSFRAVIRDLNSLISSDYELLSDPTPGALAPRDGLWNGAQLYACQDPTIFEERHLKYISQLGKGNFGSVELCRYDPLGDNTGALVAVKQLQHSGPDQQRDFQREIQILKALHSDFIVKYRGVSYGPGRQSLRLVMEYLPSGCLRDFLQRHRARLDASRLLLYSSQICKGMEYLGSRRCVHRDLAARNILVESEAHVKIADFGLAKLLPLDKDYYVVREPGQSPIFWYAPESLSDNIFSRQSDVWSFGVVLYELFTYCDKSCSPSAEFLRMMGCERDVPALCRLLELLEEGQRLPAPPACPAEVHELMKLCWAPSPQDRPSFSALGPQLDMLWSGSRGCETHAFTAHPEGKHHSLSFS

[8] = target: Mitogen-activated protein kinase kinase kinase kinase 5 (Homo sapiens) (UniProt Q9Y4K4); test: Inhibition of KHS1 (unknown origin) at 1 uM
[9] = target: Mitogen-activated protein kinase kinase kinase 14 (Homo sapiens) (UniProt Q99558); test: Inhibition of NIK (unknown origin) at 10 uM
[10] = target: Misshapen-like kinase 1 (Homo sapiens) (UniProt Q8N4C8); test: Inhibition of MINK1 (unknown origin) at 10 uM
[11] = target: Mitogen-activated protein kinase kinase kinase kinase 4 (Homo sapiens) (UniProt O95819); test: Inhibition of MAP4K4 (unknown origin) at 10 uM
[12] = target: T2, Tyrosine-protein kinase JAK3 (Homo sapiens); test: Inhibition of JAK3 (unknown origin) at 10 uM
[13] = target: Mitogen-activated protein kinase kinase kinase kinase 5 (Homo sapiens) (UniProt Q9Y4K4); test: Inhibition of KHS1 (unknown origin) at 10 uM
[14] = target: T1, Serine/threonine-protein kinase PAK 4; settings: 10 uM
Target sequence in this assay (O96013 whole entry, looked up, the tested form may be a part): as the sequence (O96013 whole entry, the tested form may be a part) above
Description: Inhibition of PAK4 (unknown origin) at 10 uM

Sequence of Serine/threonine-protein kinase PAK 1 (Q13153 whole entry, the tested form may be a part): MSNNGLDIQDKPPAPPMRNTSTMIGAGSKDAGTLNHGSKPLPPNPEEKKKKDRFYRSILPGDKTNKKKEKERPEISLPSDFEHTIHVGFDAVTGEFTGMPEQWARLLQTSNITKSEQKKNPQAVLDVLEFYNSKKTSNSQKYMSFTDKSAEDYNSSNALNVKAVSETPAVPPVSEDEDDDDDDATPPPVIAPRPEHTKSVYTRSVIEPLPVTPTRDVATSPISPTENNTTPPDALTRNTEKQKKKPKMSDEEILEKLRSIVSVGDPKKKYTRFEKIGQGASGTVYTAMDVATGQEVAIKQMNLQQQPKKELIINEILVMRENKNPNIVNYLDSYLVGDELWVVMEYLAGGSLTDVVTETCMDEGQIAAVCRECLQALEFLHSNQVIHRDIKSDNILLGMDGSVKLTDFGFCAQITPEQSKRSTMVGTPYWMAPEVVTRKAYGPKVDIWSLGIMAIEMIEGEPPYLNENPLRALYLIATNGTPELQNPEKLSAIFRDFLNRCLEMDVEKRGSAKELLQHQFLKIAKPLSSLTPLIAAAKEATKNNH
Sequence of Mitogen-activated protein kinase kinase kinase kinase 5 (Homo sapiens) (Q9Y4K4 whole entry, looked up): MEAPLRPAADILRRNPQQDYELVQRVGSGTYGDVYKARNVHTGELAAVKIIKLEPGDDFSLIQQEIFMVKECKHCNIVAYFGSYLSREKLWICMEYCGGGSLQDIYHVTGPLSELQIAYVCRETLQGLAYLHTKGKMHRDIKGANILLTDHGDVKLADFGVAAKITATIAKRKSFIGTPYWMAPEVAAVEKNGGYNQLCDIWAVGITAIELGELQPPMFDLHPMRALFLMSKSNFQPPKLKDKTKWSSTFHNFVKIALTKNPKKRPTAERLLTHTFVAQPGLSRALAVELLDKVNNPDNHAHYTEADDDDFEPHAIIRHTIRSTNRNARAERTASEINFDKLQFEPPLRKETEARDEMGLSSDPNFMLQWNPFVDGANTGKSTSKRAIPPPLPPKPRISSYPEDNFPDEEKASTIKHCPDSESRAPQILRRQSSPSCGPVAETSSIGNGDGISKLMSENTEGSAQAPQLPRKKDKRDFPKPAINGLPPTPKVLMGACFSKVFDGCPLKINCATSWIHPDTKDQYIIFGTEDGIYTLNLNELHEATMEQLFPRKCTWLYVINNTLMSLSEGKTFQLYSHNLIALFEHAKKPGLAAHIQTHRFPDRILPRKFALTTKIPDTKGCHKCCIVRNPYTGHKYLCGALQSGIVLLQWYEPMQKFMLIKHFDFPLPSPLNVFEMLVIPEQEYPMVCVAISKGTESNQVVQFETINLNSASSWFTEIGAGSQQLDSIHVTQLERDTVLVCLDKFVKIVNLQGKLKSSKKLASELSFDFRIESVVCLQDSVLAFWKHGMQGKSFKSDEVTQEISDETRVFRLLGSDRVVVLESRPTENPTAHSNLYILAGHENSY
Sequence of Misshapen-like kinase 1 (Homo sapiens) (Q8N4C8 whole entry, looked up): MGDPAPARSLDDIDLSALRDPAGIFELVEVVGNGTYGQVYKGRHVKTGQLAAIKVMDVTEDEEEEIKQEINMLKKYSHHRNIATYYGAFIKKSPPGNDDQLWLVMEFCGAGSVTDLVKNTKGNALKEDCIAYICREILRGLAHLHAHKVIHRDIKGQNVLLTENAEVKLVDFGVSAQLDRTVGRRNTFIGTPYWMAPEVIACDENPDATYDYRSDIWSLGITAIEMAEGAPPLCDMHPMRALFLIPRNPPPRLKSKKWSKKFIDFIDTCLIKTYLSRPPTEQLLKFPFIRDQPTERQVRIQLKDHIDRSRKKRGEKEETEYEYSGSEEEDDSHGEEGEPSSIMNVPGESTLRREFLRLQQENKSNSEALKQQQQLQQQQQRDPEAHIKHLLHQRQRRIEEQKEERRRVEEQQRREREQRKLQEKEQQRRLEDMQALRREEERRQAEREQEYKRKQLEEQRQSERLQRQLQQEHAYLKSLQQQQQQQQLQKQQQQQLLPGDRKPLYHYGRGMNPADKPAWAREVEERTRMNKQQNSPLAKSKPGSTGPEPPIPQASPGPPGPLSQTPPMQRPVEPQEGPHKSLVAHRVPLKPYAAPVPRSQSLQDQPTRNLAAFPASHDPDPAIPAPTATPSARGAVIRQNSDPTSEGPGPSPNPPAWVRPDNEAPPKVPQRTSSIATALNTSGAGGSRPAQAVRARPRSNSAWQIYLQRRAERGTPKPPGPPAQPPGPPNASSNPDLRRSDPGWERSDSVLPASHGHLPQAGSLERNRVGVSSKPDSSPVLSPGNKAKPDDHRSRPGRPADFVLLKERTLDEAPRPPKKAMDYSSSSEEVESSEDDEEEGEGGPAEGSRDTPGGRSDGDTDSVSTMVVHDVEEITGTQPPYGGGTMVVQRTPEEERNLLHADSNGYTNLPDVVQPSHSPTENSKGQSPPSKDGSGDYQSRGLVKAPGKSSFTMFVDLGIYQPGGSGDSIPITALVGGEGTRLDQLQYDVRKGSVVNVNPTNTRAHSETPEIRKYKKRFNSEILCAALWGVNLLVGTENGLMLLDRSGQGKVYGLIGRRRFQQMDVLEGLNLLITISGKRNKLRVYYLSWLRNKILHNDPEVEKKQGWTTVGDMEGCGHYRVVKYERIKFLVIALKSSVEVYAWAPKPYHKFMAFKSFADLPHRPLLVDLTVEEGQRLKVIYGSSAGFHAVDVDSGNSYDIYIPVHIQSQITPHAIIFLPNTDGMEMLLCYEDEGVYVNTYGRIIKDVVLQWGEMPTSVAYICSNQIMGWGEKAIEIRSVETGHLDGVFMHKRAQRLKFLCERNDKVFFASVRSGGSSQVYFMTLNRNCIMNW
Sequence of Mitogen-activated protein kinase kinase kinase kinase 4 (Homo sapiens) (O95819 2-1239 limits assumed): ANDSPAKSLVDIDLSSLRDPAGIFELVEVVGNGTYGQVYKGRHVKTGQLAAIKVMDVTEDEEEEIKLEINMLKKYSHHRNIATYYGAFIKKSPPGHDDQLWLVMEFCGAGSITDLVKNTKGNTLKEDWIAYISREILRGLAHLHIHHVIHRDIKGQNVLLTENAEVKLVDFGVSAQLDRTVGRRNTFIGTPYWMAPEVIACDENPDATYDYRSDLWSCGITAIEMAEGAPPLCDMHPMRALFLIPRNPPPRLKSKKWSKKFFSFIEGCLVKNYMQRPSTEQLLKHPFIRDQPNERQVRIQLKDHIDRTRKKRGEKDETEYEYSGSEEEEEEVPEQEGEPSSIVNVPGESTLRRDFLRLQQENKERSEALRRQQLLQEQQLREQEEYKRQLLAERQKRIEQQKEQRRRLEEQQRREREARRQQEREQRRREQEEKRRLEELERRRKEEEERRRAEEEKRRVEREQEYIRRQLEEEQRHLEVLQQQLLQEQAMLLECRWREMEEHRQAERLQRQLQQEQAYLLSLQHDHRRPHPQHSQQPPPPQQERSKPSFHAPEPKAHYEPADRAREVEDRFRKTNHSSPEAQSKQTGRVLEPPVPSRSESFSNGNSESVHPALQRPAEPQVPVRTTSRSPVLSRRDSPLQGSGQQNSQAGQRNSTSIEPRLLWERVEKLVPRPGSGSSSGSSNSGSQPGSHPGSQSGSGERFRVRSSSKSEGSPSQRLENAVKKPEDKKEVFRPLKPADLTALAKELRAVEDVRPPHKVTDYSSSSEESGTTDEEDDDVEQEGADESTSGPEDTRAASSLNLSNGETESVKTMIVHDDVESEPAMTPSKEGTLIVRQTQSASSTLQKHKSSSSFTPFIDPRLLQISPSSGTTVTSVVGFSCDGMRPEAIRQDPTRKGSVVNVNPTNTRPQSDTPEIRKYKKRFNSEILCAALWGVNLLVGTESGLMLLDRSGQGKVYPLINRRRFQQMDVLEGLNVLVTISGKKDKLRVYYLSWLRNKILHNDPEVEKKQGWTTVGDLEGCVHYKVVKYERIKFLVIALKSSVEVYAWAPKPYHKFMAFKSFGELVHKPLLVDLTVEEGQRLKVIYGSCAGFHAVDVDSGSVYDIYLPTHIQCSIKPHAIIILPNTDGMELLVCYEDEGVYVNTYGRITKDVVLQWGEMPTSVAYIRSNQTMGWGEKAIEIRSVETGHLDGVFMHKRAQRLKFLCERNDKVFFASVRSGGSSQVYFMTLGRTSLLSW

Cc1cc([C@](C)(O)C#Cc2ccc3nc(C)n(-c4ncnc(N)n4)c3c2)no1
Ki [1]: > 4.5 µM | Ki [2]: 32 nM

Cc1nc2ccc(C#CC3(O)COC3)cc2n1-c1ncnc(N)n1
Ki [1]: > 4.5 µM | Ki [2]: > 2900 nM

Cc1nc2ccc(C#CC(C)(C)O)cc2n1-c1ncnc(N)n1
Ki [1]: 15.3 µM | Ki [2]: 500 nM | inhibition [3]: 68% | inhibition [4]: 34% | inhibition [5]: 27% | inhibition [6]: 31% | inhibition [7]: 2% | inhibition [8]: 81%

CC(C)(O)C#Cc1ccc2cnn(-c3ccnc(N)n3)c2c1
Ki [1]: > 4.5 µM | Ki [2]: 120 nM

CC(C)(O)C#Cc1ccc2cnn(-c3cc(N)ncn3)c2c1
Ki [1]: > 4.5 µM | Ki [2]: 1300 nM

Cc1nc2ccc(C#C[C@@](C)(O)c3nccs3)cc2n1-c1ncnc(N)n1
Ki [1]: > 4.5 µM | Ki [2]: 600 nM

Cc1nc2ccc(C#C[C@@]3(O)C[C@@H]4CC[C@H]3C4)cc2n1-c1ncnc(N)n1 (racemic)
Ki [1]: > 4.5 µM | Ki [2]: 190 nM

COCCNc1nc2ccc(C#CC(C)(C)O)cc2n1-c1ccnc(N)n1
Ki [1]: > 4.5 µM | Ki [2]: 140 nM | inhibition [9]: 84% | inhibition [10]: 32% | inhibition [11]: 40% | inhibition [12]: 31% | inhibition [13]: 88% | inhibition [14]: 97%

CCNc1nc2ccc(C#CC(C)(C)O)cc2n1-c1ncnc(N)n1
Ki [1]: > 4.5 µM | Ki [2]: 60 nM
